Literature values in patent US20100076037A1, “Methods of Treating Neuropathic Pain with Agonists of PPAR-gamma” (priority 2006, published 2010).

What was measured:
PPARalpha [1] = target: T1, PPARalpha (Homo sapiens, UniProt Q07869); conditions: first value of the pair given as α/γ; read-out: EC50 for PPARalpha agonism; cited from earlier work
T1 sequence (Q07869 1-468): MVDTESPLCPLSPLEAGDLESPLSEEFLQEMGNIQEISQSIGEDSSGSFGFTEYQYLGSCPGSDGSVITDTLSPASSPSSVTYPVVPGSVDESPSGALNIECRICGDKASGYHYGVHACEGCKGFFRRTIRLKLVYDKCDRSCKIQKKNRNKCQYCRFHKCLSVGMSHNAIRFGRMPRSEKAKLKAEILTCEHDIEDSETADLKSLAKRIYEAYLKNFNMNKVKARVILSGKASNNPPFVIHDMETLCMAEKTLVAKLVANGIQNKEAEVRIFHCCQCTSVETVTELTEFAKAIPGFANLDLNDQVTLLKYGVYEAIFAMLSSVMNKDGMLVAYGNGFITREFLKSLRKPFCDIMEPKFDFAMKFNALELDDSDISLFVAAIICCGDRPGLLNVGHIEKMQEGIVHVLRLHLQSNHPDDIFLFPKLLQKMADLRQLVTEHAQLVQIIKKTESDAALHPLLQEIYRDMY

[2] = cited from earlier work
rats = conditions: intrathecal; cited from earlier work
mouse (m)PPARgamma = target: T2, mouse (m)PPARgamma (Mus musculus, UniProt P37238); conditions: U2 OS cells, mPPARgamma, cited from earlier work
T2 construct: expressed in transfected cells; host or cells: U2 OS

PPARalpha [3] = target: T1, PPARalpha; conditions: U2 OS cells; cited from earlier work
PPARγ = PPARγ (Homo sapiens, UniProt P37231); conditions: ECV304 cell line; cited from earlier work
mPPARalpha = mPPARalpha (Mus musculus, UniProt P23204); conditions: read-out: EC50 reporter gene assay, U2 OS cells; cited from earlier work
P-glycoprotein = target: T3, P-glycoprotein (Homo sapiens, UniProt P08183); conditions: cited from earlier work
T3 construct: host or cells: Caco2 and MDCK-MDR1 monolayers (tie to the P-gp statement is grammatically loose)

[4] = tested on: multidrug resistance protein 2; conditions: Caco-2; cited from earlier work
diabetic patients = conditions: human, in vivo; cited from earlier work
[5] = 3 or 30 mg/kg; cited from earlier work
[6] = tested on: rats subjected to spinal cord injury; conditions: given before pioglitazone; cited from earlier work

T2 sequence (P37238 whole entry): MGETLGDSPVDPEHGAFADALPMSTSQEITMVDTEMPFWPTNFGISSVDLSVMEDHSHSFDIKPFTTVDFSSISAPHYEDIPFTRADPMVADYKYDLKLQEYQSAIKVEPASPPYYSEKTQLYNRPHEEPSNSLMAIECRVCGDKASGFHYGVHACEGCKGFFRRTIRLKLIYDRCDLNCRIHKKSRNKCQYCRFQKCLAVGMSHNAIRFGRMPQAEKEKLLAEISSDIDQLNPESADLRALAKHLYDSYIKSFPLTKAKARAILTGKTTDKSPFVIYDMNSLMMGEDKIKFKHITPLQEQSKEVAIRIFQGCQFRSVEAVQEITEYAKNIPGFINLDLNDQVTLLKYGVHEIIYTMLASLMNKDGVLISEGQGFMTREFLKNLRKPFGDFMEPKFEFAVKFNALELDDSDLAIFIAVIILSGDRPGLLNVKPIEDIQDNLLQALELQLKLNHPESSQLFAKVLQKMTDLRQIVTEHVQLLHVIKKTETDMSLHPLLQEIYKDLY
T3 sequence (P08183 whole entry): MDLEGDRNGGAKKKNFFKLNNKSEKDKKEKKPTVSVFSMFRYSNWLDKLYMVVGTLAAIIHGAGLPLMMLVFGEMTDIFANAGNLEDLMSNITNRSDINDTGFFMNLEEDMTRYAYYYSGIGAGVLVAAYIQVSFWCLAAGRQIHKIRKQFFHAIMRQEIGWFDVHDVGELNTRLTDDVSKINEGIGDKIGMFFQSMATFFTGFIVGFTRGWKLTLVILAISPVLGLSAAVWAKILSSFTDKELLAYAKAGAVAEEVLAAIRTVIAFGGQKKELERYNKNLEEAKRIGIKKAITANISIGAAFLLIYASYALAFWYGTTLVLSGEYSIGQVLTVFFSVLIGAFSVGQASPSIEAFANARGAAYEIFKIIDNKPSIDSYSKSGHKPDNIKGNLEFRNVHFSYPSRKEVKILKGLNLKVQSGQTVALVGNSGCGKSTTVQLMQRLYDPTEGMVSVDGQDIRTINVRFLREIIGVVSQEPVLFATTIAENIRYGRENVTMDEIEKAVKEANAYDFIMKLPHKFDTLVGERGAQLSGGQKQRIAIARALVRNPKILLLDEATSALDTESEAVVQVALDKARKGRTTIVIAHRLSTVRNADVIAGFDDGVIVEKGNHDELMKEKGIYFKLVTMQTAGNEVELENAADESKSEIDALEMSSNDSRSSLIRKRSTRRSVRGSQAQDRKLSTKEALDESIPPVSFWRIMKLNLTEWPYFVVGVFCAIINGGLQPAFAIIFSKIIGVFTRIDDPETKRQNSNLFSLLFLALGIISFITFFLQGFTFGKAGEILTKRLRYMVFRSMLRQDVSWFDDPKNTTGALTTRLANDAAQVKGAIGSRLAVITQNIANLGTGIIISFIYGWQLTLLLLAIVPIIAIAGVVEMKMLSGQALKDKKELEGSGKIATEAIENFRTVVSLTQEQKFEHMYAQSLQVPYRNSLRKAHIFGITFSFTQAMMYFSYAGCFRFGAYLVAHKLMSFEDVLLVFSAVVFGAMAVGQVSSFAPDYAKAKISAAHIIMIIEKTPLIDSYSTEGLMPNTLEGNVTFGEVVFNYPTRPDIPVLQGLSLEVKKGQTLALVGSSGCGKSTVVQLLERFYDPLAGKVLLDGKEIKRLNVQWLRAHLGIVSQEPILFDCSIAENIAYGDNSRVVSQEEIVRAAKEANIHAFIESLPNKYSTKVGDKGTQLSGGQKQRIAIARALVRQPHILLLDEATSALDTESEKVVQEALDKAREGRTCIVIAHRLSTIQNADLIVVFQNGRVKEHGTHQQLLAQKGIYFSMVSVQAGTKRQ
Chain of PPARγ (P37231 whole entry, species assumed): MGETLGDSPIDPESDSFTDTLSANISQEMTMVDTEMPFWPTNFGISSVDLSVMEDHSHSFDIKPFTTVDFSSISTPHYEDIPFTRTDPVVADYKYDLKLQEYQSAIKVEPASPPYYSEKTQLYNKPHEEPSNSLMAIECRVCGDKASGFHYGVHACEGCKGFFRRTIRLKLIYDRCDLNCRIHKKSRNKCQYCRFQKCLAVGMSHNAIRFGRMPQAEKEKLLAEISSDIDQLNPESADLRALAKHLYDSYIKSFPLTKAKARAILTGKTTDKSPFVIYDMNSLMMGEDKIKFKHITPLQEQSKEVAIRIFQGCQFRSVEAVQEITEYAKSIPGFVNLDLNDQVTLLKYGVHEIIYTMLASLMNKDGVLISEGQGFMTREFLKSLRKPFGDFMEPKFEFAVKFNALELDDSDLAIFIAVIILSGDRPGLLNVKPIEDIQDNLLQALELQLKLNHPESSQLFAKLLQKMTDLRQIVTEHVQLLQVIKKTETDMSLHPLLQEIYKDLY
Chain of mPPARalpha (P23204 whole entry): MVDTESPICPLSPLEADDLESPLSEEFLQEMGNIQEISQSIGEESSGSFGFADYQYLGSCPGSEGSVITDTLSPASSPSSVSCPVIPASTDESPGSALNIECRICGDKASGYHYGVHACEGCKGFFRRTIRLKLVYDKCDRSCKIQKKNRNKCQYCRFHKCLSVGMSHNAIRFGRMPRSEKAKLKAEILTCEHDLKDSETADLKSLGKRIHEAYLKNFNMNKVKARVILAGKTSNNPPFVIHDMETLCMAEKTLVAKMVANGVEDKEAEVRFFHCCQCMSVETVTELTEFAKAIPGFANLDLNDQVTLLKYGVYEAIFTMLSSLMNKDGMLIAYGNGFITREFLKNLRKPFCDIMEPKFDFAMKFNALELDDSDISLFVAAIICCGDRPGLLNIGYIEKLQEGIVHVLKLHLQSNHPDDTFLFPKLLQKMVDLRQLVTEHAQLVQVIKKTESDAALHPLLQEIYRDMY

**Q.** For `Cc1oc(-c2ccccc2)nc1CCOc1ccc(CC2C(=O)NOC2=O)cc1` (stereo not drawn) [JTT-501], which EC50 (PPARalpha [1]) is on record?
**A.** 0.4 µM

**Q.** Which “mechanical allodynia (von Frey)” value ([2]; intrathecal, 7 days post-SNI) does the source give for `CCCCC/C=C/C=C1/C(=O)C=C[C@@H]1C/C=C\CCCC(=O)O` [15dPGJ2] here?
**A.** dose-dependently reduced

**Q.** What about the pain behavior (rats) of the same compound?
**A.** reduction in pain behavior

**Q.** Which “EC50 reporter gene assay” value (mouse (m)PPARgamma) does the source give for `Cc1cccc(Nc2cc(Cl)nc(SCC(=O)O)n2)c1C` [WY-14643] here?
**A.** no activity

**Q.** And the “EC50 reporter gene assay” value (PPARalpha [3])?
**A.** no activity

**Q.** For `CC(C)(c1ccc(OCC2CO2)cc1)c1ccc(OCC2CO2)cc1` (stereo not drawn) [BADGE, Bisphenol A diglycidyl ether], which PPARγ activity (PPARγ) is on record?
**A.** has PPARγ agonist activity

**Q.** And the “effect on the observed anti-allodynic effects of rosiglitazone and 15dPGJ2” value ([2]; in vivo)?
**A.** reversed

**Q.** For `CC(C)(Oc1ccc(CCNC(=O)c2ccc(Cl)cc2)cc1)C(=O)O` [bezafibrate], which EC50 (mouse (m)PPARgamma; read-out: EC50 reporter gene assay) is on record?
**A.** 23 µM

**Q.** And the EC50 (mPPARalpha)?
**A.** 24 µM

**Q.** What does the source list for `CCOC(Cc1ccc(OCCc2ccc(OS(C)(=O)=O)cc2)cc1)C(=O)OC1OC(C(=O)O)C(O)C(O)C1O` (stereo not drawn) [acylglucuronide metabolite]?
**A.** substrate of P-glycoprotein (P-glycoprotein): not substrates of P-glycoprotein; transport in Caco2 and MDCK-MDR1 monolayers [4]: apparently transported by multidrug resistance protein 2

**Q.** Which EC50 (PPARalpha [1]) does the source give for `CCO[C@@H](Cc1ccc(OCCN2c3ccccc3Oc3ccccc32)cc1)C(=O)O` [NNC-61-0029] here?
**A.** 0.6 µM

**Q.** For `CCc1ccc(CCOc2ccc(CC3SC(=O)NC3=O)cc2)nc1` (stereo not drawn) [pioglitazone], which rates of edema (diabetic patients) is on record?
**A.** 4.2%

**Q.** For `O=C(Nc1ccccc1)c1cc([N+](=O)[O-])ccc1Cl` [GW9662, 2-chloro-5-nitro-N-phenylbenzamide], which “threshold (in g)” value [5] is on record?
**A.** increased

**Q.** What about the “effect of pretreatment on pioglitazone-induced motor function recovery” value [6] of the same compound?
**A.** completely abolished
